# Measured values published in US20250146007A1 (priority 2022, published 2025).
# Entries after “also recorded” stand apart in the source; their conditions may differ.
# Key:
# C. acnes tdk knock-out = type: cell-based, Cutibacterium acnes
# PCi-SEB_Cau sebocytes = type: cell-based, human
# [1] = system: Neutrophil gelatinase-associated lipocalin 2 (NGAL) protein; settings: human, in vivo; cited from earlier work
compound,measurement,setting,value
"O=c1[nH]c(=O)n([C@H]2C[C@H](O)[C@@H](CO)O2)cc1F [FUDR, 5-fluoro-2′-deoxyuridine]",growth of tdk knock-out (knock-in) strain on FUDR plates,C. acnes tdk knock-out,could grow; also recorded: no growth inhibiting effect
"CC[C@H]1OC(=O)[C@H](C)[C@@H](O[C@H]2C[C@@](C)(OC)[C@@H](O)[C@H](C)O2)[C@H](C)[C@@H](O[C@@H]2O[C@H](C)C[C@H](N(C)C)[C@H]2O)[C@](C)(O)C[C@@H](C)C(=O)[C@H](C)[C@@H](O)[C@]1(C)O [ery, erythromycin]","growth of tdk knock-out (knock-in, ermE) strain on erythromycin plates",C. acnes tdk knock-out,could grow
"CC1=C(/C=C/C(C)=C/C=C/C(C)=C\C(=O)O)C(C)(C)CCC1 [isotretinoin, 13-cis retinoic acid]",decrease in sebum production compared to AA treated cells,PCi-SEB_Cau sebocytes,1.8 fold
same,increase in NGAL protein in treated patients,[1],7 fold
